Results taken from US8148378B2, “Pyridazine derivatives and their use as inhibitors of stearoyl-CoA desaturase-1 activity in a mammal” (Xenon Pharmaceuticals Inc., priority 2003, dated 2012).
Like-named read-outs stand apart in the source and are kept apart here.

What was measured:
[1] = biological target: T1, Stearoyl-CoA Desaturase (SCD) (Mus musculus, UniProt P13516); assay: Stearoyl-CoA desaturase inhibition using mouse liver microsomes; assay type: biochemical; conditions: for Residual Activity (% remaining, 1 μM): % SCD enzyme activity remaining at 1 μM test compound; for Residual Activity (% remaining, 10 μM): % SCD enzyme activity remaining at 10 μM test compound
T1 construct: from tissue; host or cells: liver microsomes of male ICR mice on a high-carbohydrate, low fat diet
T1 sequence (P13516 1-355): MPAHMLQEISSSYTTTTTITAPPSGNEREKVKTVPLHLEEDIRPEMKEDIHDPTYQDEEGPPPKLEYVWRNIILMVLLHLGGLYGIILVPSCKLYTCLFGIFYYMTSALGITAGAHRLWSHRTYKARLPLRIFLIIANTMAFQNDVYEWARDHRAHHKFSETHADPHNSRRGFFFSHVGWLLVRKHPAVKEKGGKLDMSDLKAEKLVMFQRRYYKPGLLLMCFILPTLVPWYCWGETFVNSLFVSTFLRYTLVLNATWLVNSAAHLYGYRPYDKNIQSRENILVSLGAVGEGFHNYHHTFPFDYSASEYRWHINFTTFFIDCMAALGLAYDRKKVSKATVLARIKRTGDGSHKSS
Description: Preparation of Mouse Liver Microsomes:
The absence of mitochondrial contamination is enzymatically assessed.
Incubation of Mouse Liver Microsomes with Test Compounds: […]

SCD = biological target: T2, SCD (Homo sapiens, UniProt O00767); assay: Cell IC50 of SCD inhibitors (Table 1, no method given); assay type: cell-based; conditions: cell assay, cell type not stated
T2 sequence (O00767 1-359): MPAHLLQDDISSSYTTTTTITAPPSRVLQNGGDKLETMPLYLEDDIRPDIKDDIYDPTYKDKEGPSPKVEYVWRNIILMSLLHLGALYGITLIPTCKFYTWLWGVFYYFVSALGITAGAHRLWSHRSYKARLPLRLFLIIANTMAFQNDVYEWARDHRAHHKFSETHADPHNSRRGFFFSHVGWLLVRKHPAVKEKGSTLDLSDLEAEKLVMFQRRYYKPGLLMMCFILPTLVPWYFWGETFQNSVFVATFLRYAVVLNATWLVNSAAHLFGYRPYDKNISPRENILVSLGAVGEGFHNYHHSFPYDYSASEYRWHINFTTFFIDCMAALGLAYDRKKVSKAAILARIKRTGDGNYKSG

[2] = projected from residual activity at 1 and 10 μM, read-out: Projected IC50
[3] = microsomal assay, read-out: Microsome IC50

Compound | Residual Activity (% remaining, 1 μM) [1] [% remaining] | Residual Activity (% remaining, 10 μM) [1] [% remaining] | IC50 [1, 2] [µM] | IC50 [1, 3] [µM] | IC50 (SCD) [µM]
CN(CCc1ccccc1)c1ccc(N2CCN(C(=O)c3ccccc3C(F)(F)F)CC2)nn1 [Example 1, {4-[6-(METHYLPHENETHYLAMINO)PYRIDAZIN-3-YL]PIPERAZIN-1-YL}-(2-TRIFLUOROMETHYLPHENYL)METHANONE] | 86.210 | 57.955 | 10 to 50 |  | 
CC(C)CCSc1ccc(N2CCN(C(=O)c3ccccc3C(F)(F)F)CC2)nn1 [Example 6.1, {4-[6-(3-METHYLBUTYLSULFANYL)PYRIDAZIN-3-YL]PIPERAZIN-1-YL}-(2-TRIFLUOROMETHYL-PHENYL)METHANONE] |  |  |  | 0.447 | 0.849
O=C(c1ccccc1C(F)(F)F)N1CCN(c2ccc(OCCC3CC3)nn2)CC1 [Example 5.1, {4-[6-(2-CYCLOPROPYLETHOXY)PYRIDAZIN-3-YL]PIPERAZIN-1-YL}-(2-TRIFLUOROMETHYLPHENYL)METHANONE] | 53.875 | 29.330 | 1 to 10 |  | 
O=C(c1ccccc1C(F)(F)F)N1CCN(c2ccc(OCCc3ccccc3)nn2)CC1 [Example 5, [4-(6-PHENETHYLOXYPYRIDAZIN-3-YL)PIPERAZIN-1-YL]-(2-TRIFLUOROMETHYL-PHENYL)METHANONE] |  |  |  | 4.55 | 4.3
O=C(c1ccccc1C(F)(F)F)N1CCN(c2ccc(SCCc3ccccc3)nn2)CC1 [Example 6, [4-(6-PHENETHYLSULFANYLPYRIDAZIN-3-YL)PIPERAZIN-1-YL](2-TRIFLUOROMETHYLPHENYL)METHANONE] |  |  |  | 0.06 | 0.033
CCCS(=O)(=O)Nc1ccc(N2CCN(C(=O)c3ccccc3C(F)(F)F)CC2)nn1 [Example 2, PROPANE-1-SULFONIC ACID {6-[4-(2-TRIFLUOROMETHYLBENZOYL)PIPERAZIN-1-YL]PYRIDAZIN-3-YL}AMIDE] |  |  |  | 6.25 | 10.5
O=C(c1ccccc1C(F)(F)F)N1CCN(c2ccc(NCCc3ccccc3)nn2)CC1 [Example 1.1, [4-(6-PHENETHYLAMINOPYRIDAZIN-3-YL)PIPERAZIN-1-YL]-(2-TRIFLUOROMETHYLPHENYL)METHANONE] | 91.144 | 55.946 | 10 to 50 |  | 
O=C(c1ccccc1C(F)(F)F)N1CCN(c2ccc([S+]([O-])CCc3ccccc3)nn2)CC1 (stereo not drawn) [Example 4] |  |  |  | 0.067 | 0.175
O=C(c1ccccc1C(F)(F)F)N1CCN(c2ccc(S(=O)(=O)CCc3ccccc3)nn2)CC1 [Example 3, {4-[6-(2-PHENYLETHANESULFONYL)PYRIDAZIN-3-YL]PIPERAZIN-1-YL}-(2-TRIFLUOROMETHYL-PHENYL)METHANONE] |  |  |  | 0.067 | 0.111
